Experimental data taken from PMC10906223 (JCI Insight, 2024).
Several values for one entry are separate records, joined by “and”; a condition that tells them apart may be missing. Equal entries are not always repeated. Where two headings read alike, the source gives them in different places.

Assays:
diabetic NOD mice = test: Plasma somatostatin in NOD mice; type: in vivo, mouse; design: unit not given beside the values; conditions: WCDD301 group of NOD mice; quantity not given
Description: Terminal blood was collected into microfuge tubes containing K2-EDTA (supplemented by 45 mM phenylmethylsulphonyl fluoride and 0.77 μM aprotinin) through cardiac puncture. Plasma was separated by centrifugation (2,000g for 10 minutes at 4°C) and kept at –80°C until analysis. Plasma samples with hemolysis were excluded from the study. […] Values of BUN, creatinine, ALB, ALT, and AST were determined by a Roche Cobas C501 Autoanalyzer as performed by the Washington University Diabetes Research Center Translational Diagnostics Core. Reference intervals of blood chemistry parameters for inbred NOD mice were extracted from the Mouse Phenome Database (https://phenome.jax.org/).

[1] = Microsomal stability assay, CD-1 mouse liver microsomes; type: in vitro ADME; conditions: for Remaining in hepatic microsomes (100 at 0 min): mouse microsomes, Figure 5D
Description: A total of 445 μL of the working solution was transferred into prewarmed incubation plates for treated (T60) and control (NCF60) measurements. After preincubation (10 minutes at 37°C with constant shaking), 54 μL was transferred to the blank plate, followed by 6 μL of NADPH and 180 μL quenching solution. In parallel, 5 μL of WCDD301 (100 μM) was added into incubation plates (T60 and NCF60) containing microsomes and mixed thoroughly (3 times). For the NCF60 plate, 50 μL of buffer was added, mixed (thoroughly, 3 times), shaken, and incubated at 37°C for 60 minutes. In the quenching plate T0, quenching solution (180 μL) and NADPH cofactor (6 μL) were added. For T60 plate, 54 μL of the mixture was placed into the quenching plate (for T0 point), followed by adding 44 μL NADPH cofactor with shaking incubation at 37°C for 60 minutes. Quenching solution (180 μL) was added to quenching plates at 5, 15, 30, 45, and 60 minutes, and 60 μL of sample was transferred from T60 plate per time point to the quenching plates. For the NCF60 plates, 60 μL sample from the NCF60 incubation plate was transferred to the quenching plate (containing quenching solution) at the 60-minute time point. After plates were shaken for 10 minutes and centrifuged (1,750g, 20 minutes at 4°C), 80 μL of the supernatant was transferred into 240 μL HPLC water for LC-MS/MS analysis. The following first-order kinetic equation was used to calculate half-life (T1/2): [drawing 3]; when
Then, intrinsic clearance [CLint (microsomal; mic)] and hepatic clearance [CLint (liver)] were predicted using the following equations ([66]): […]

EphA4 receptor = target: T1, EphA4 receptor (Mus musculus, UniProt Q03137); test: ELISA: binding affinity (Ki) of WCDD301 for EphA4 via bound Ephrin-A5 Fc; design: Bound Ephrin (0.1 µM-WCDD301) / Bound Ephrin, raw data: unit not given here; conditions: for Bound Ephrin (0.1 µM-WCDD301): replicates, Figure 1B
T1 construct: purchased R&D Systems 641-A4-200
Description: Wells of the protein A–coated microplate (Pierce, catalog 15132) were washed using 200 μL of binding buffer (PBS supplemented by 0.01% Tween 20). Recombinant mouse EphA4 Fc chimera protein (R&D Systems, catalog 641-A4-200) was reconstituted in 1× PBS (Genesee, catalog 25-507XB, pH 7.2 ± 0.1), diluted to 3 μg/mL using binding buffer, dispensed (100 μL) in each well, and rocked on a belly dancer shaker (3 hours at room temperature, RT). Following 3 washes in the binding buffer, blocking was done using blocking buffer (5% BSA in binding buffer) for 3 hours at RT. Then, after 5 washes, the reconstituted recombinant mouse Ephrin-A5 Fc (R&D Systems, catalog 7396-EA-050) was added (100 μL) into each well and rocked for 2.5 hours on the shaker (Ephrin-A5 Fc concentrations were used as described in the Results section). After 7 washes using binding buffer, alkaline phosphatase–conjugated antibody against Ephrin-A5 was diluted (1:1,000) in the binding buffer plus 2% BSA, added to each well, and incubated at 4°C, overnight. Conjugation of the anti-EFNA5 antibody (Abnova, catalog H00001946-M02; 0.5 mg/mL; target sequence 114–203) was done using Abcam conjugation kit (catalog ab102850) based on the manufacturer’s instruction. After washing 7 times, p-nitrophenyl phosphate tablet (MilliporeSigma, catalog N1891) was reconstituted in 5 mL of PBS and added to each well (100 μL). Following 1 hour shaking at RT in the dark, reaction was stopped by adding 100 μL of 3N NaOH. OD was read at 405 nm within 5 minutes using the microplate reader (Agilent BioTek Cytation 5).
As a control, Fc fragment (BioLegend, catalog 790102) was incubated and used for normalization of data. […] Then, Ki was determined via an approach called finding Ki without global fitting ([58]) by using the following formula: […]
This approach provided a Km value for […] and an estimate for its binding affinity, Ki. To further verify this finding, experiments were designed in the context of 8 nM Ephrin-A5 to determine bound levels of Ephrin-A5 in the presence of WCDD301 (0, 0.1, 0.4, 0.8, and 1.6 μM). Data were normalized and fit by nonlinear regression in GraphPad Prism software version 4 to determine IC50. Then, by using the Cheng-Prusoff equation

[2] = WCDD301 0.1 µM, 8 nM Ephrin-A5, Figure 1C

T1 sequence (Q03137 with tags, fused parts or gaps limits assumed): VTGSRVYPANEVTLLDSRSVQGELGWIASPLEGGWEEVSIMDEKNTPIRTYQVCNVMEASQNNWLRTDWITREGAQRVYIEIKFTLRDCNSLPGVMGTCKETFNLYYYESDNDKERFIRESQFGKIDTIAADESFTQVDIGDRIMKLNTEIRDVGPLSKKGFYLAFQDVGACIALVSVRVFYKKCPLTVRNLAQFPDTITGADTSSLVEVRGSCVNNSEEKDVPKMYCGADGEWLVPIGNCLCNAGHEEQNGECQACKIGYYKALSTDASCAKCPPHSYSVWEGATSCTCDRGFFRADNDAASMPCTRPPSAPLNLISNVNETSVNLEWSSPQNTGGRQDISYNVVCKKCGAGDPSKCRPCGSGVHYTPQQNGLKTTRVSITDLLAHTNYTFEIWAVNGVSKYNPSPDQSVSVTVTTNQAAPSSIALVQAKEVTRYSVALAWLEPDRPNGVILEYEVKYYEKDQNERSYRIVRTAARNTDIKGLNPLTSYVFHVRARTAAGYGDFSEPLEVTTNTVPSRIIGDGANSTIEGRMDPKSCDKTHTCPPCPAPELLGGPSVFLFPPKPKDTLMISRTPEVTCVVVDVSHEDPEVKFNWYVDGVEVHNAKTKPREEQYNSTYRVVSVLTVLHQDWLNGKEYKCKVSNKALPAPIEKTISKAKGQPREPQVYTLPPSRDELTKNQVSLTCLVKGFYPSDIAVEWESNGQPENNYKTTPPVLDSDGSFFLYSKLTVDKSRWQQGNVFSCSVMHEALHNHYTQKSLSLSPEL

**Q.** Which “Plasma somatostatin (Figure 7C)” value (diabetic NOD mice) does the source give for CC(=O)OCC(N)(COC(C)=O)COC(C)=O [WCDD301, 2-(acetoxymethyl)-2-aminopropane-1,3-diyl diacetate] here?
**A.** 310.49 and 318.85 and 327.2 and 342.5

**Q.** And the half-life at 1 µM ([1]; CD-1, mouse, liver microsomes)?
**A.** 1.56 h

**Q.** What about the microsomal CLint at 1 µM ([1]; CD-1, mouse, liver microsomes, read-out: Intrinsic microsomal clearance) of the same compound?
**A.** 14.8 µL/min/mg

**Q.** And the “Remaining in hepatic microsomes (100 at 0 min)” value (“Remaining in hepatic microsomes” below) ([1]; 5 min)?
**A.** 95.6

**Q.** What about the “Remaining in hepatic microsomes” value ([1]; 15 min) of the same compound?
**A.** 86.5

**Q.** And the “Remaining in hepatic microsomes” value ([1]; 30 min)?
**A.** 79.8

**Q.** What about the “Remaining in hepatic microsomes” value ([1]; 45 min) of the same compound?
**A.** 69.6

**Q.** And the “Remaining in hepatic microsomes” value ([1]; 60 min)?
**A.** 64.2

**Q.** What about the Hepatic clearance ([1]; mouse, predicted from microsomal data) of the same compound?
**A.** 58.7 mL/min/kg

**Q.** And the Ki (EphA4 receptor; 8 nM Ephrin-A5, Figure 1C, read-out: Ki via Cheng-Prusoff equation)?
**A.** 130 nM

**Q.** And the IC50 (EphA4 receptor; 8 nM Ephrin-A5, WCDD301 0-1.6 μM, Figure 1C)?
**A.** 210 nM

**Q.** And the “Bound Ephrin (0.1 µM-WCDD301)” value (EphA4 receptor; EFN 2 nM)?
**A.** 0.08 and 0.079 and 0.05

**Q.** And the “Bound Ephrin (0.1 µM-WCDD301)” value (EphA4 receptor; EFN 4 nM)?
**A.** 0.057 and 0.077 and 0.06

**Q.** And the “Bound Ephrin (0.1 µM-WCDD301)” value (EphA4 receptor; EFN 8 nM)?
**A.** 0.119 and 0.122 and 0.09

**Q.** What about the “Bound Ephrin (0.1 µM-WCDD301)” value (EphA4 receptor; EFN 16 nM) of the same compound?
**A.** 0.141 and 0.136 and 0.1

**Q.** What about the “Bound Ephrin (0.1 µM-WCDD301)” value (EphA4 receptor; EFN 32 nM) of the same compound?
**A.** 0.235 and 0.22 and 0.2

**Q.** What about the “Bound Ephrin (0.1 µM-WCDD301)” value (EphA4 receptor; EFN 64 nM) of the same compound?
**A.** 0.301 and 0.295 and 0.32

**Q.** What about the Ki (EphA4 receptor; ELISA with Ephrin-A5 Fc, read-out: Ki, binding affinity for EphA4 receptor) of the same compound?
**A.** ≤ 130 nM

**Q.** What about the “Bound Ephrin, normalized” value (EphA4 receptor; [2]) of the same compound?
**A.** 51.76 and 79.12

**Q.** What about the “Bound Ephrin, raw data” value (EphA4 receptor; [2]) of the same compound?
**A.** 0.069 and 0.1

**Q.** What about the “Bound Ephrin, raw data” value (EphA4 receptor; WCDD301 0.4 µM, 8 nM Ephrin-A5, Figure 1C) of the same compound?
**A.** 0.037 and 0.06 and 0.07

**Q.** What about the “Bound Ephrin, raw data” value (EphA4 receptor; WCDD301 0.8 µM, 8 nM Ephrin-A5, Figure 1C) of the same compound?
**A.** 0.02 and 0.035 and 0.04

**Q.** And the “Bound Ephrin, raw data” value (EphA4 receptor; WCDD301 1.6 µM, 8 nM Ephrin-A5, Figure 1C)?
**A.** 0.012 and 0.009 and 0.01
